# Where two headings read alike, the source gives them in different places.
# How the values were obtained:
# [1] = Pharmacokinetic assessment of X842 in rats (IV, single oral, repeated oral); assay type: in vivo, Sprague-Dawley rats; conditions: for Cmax / AUC(0-t) / half-life: Sprague-Dawley, rat, plasma; for AUC(0-t): read-out: AUC(0–24h)
# Procedure: Male and female Sprague-Dawley rats weighing approximately 150 g were housed individually with a 12-h light/dark cycle. Food and water were provided ad libitum, except during overnight fasting (10–16 h) prior to oral drug administration, as described previously ([Kotegawa et al., 1998]; [Kotegawa et al., 2002]). To investigate the absorption kinetics of X842 (prodrug) and linaprazan (metabolite, parent drug) in rats after oral and intravenous administration of X842, X842 were dissolved in 5% Solutol HS15/45% ethanol/10% PEG400/40% saline, and methane sulfonic acid was used to adjust to pH 3, yielding solutions with concentrations of 0.6 mg/mL, 2.4 mg/mL, and 9.6 mg/mL for oral administration. For intravenous (IV) injection, a drug solution (0.6 mg/mL) was prepared and filtered through a 0.22-μm filter. Blood samples were collected via the jugular vein of conscious rats (without intubation, narcotics, or antibiotics) prior to dosing and at 0.083, 0.25, 0.5, 1, 2, 4, 6, 8, and 24 h after dosing. Blood samples were placed into tubes containing sodium heparin and centrifuged at 3,500 rpm for 10 min at 4 °C. Following centrifugation, the plasma was transferred to clean tubes and stored at −80 °C until further analysis. All animals were euthanized by carbon dioxide (CO2) inhalation after the final blood sample collection.
# (§1) Pharmacokinetic assessments were conducted by Shanghai Medicilon Inc. Using C18 solid-phase extraction (Shimadzu UFLC-20A, ACE 3, C18, 3.0 µm, 150 × 4.6 mm; Shimadzu, Japan) with the following conditions: mobile phase A: 1 M ammonium acetate in water, mobile phase B: 100% acetonitrile; gradient 0–5 min: 100% A, 5–30 min: 85% A, 35–63 min: 75% A, 63–65 min: 55% A, 65–70 min: 0% A, 72–87 min: 100% A; flow rate 0.7 mL/min; column temperature 30 °C ([Weidof and Covey, 1992]). […] Bioavailability was calculated as F (%) = (Doseiv × AUCpo(0–24h)) ÷ (Dosepo × AUCiv (0–24h)) × 100%, where “po” represents oral administration and “iv” represents intravenous administration.
# [2] = Pharmacokinetic assessment of X842 in dogs (IV, single oral, repeated oral); assay type: in vivo; conditions: beagle, dog, plasma; for half-life at 1 day: read-out: t1/2 Day 1 (converted); for half-life at 7 day: read-out: t1/2 Day 7 (converted)
# Procedure: as §1
# Male and female Beagle dogs weighing around 9 kg were arbitrarily selected for testing. Food and water were provided ad libitum, except during overnight fasting (15–16 h) prior to oral drug administration ([Adebowale et al., 2002]). X842 were dissolved in the PEG400/ethanol/Solutol/water mixture (40:10:5:45% v/v) and methane sulfonic acid was used to adjust to pH 3, yielding solutions with concentrations of 0.3 mg/mL, 1.2 mg/mL, and 4.8 mg/mL for oral administration. There were four rounds of drug administration. One week was required between the rounds of testing according to the conditions for of animal welfare maintenance. For IV injection, a drug solution with a concentration of 0.3 mg/mL was prepared and filtered through a 0.22-μm filter. Blood samples were collected via the jugular vein using the same procedures as were used for the rat experiments. Following centrifugation, the plasma was transferred to clean tubes and stored at −80 °C until further analysis. All animals were euthanized by phenobarbital injection after the final blood sample collection. Pharmacokinetic assessments were conducted as described in 2.2.1.
# [3] = female, iv, 0.6 mg/kg, female rats, intravenous X842, plasma analyte as labelled
# [4] = female, po, 0.6 mg/kg, female rats, single oral X842 0.6 mg/kg, analyte as labelled
# [5] = female, po, 2.4 mg/kg, female rats, single oral X842 2.4 mg/kg, analyte as labelled
# [6] = female, po, 2.4 mg/kg, female rats, single oral X842, 2.4 mg/kg (third dose group)
# [7] = male, iv, 0.6 mg/kg, male rats, intravenous X842, plasma analyte as labelled
# [8] = male, po, 0.6 mg/kg, male rats, single oral X842 0.6 mg/kg, analyte as labelled
# [9] = male, po, 2.4 mg/kg, male rats, single oral X842 2.4 mg/kg, analyte as labelled
# [10] = male, po, 2.4 mg/kg, male rats, single oral X842, 2.4 mg/kg (third dose group)
# [11] = 1.2 mg/kg, female dogs, repeat oral X842, Day 1, analyte as labelled
# [12] = 1.2 mg/kg, female dogs, repeat oral X842, Day 7, analyte as labelled
smiles,measurement,setting,value
"Cc1cccc(C)c1CNc1cc(C(=O)NCCOC(=O)CCCC(=O)O)cn2c(C)c(C)nc12 [X842, linaprazan glurate]",Cmax,[1]; [3],0.606 ± 0.285 µg/mL
same,AUC(0-t),[1]; [3],0.218 ± 0.101 µg·h/mL
same,half-life,"[1]; female, iv, 0.6 mg/kg, female rats, intravenous X842, plasma analyte as labelled, read-out: t1/2 (converted)",0.4 ± 0.03 h
same,Cmax,[1]; [4],0.0087 ± 0.0049 µg/mL
same,AUC(0-t),[1]; [4],0.0138 ± 0.0131 µg·h/mL
same,half-life,"[1]; female, po, 0.6 mg/kg, female rats, single oral X842 0.6 mg/kg, analyte as labelled, read-out: t1/2 (converted)",2.8 h
same,Cmax,[1]; [5],0.0426 ± 0.0174 µg/mL
same,AUC(0-t),[1]; [5],0.0856 ± 0.0456 µg·h/mL
same,half-life,"[1]; female, po, 2.4 mg/kg, female rats, single oral X842 2.4 mg/kg, analyte as labelled, read-out: t1/2 (converted)",4.1 ± 1.2 h
same,Cmax,[1]; [6],0.164 ± 0.124 µg/mL
same,AUC(0-t),[1]; [6],0.31 ± 0.256 µg·h/mL
same,half-life,"[1]; female, po, 2.4 mg/kg, female rats, single oral X842, 2.4 mg/kg (third dose group), read-out: t1/2 (converted)",2.1 ± 0.3 h
same,half-life,"[1]; female, po, female rats, single-dose oral administration, read-out: t1/2 (range over doses)",2.1 to 4.1 h
same,Cmax,[1]; [7],0.448 ± 0.12 µg/mL
same,half-life,"[1]; male, iv, 0.6 mg/kg, male rats, intravenous X842, plasma analyte as labelled (prodrug X842 / parent linaprazan), read-out: t1/2 (converted)",0.4 ± 0.1 h
same,AUC(0-t),[1]; [7],0.146 ± 0.038 µg·h/mL
same,Cmax,[1]; [8],0.0025 ± 0.0018 µg/mL
same,AUC(0-t),[1]; [8],0.0025 ± 0.0026 µg·h/mL
same,Cmax,[1]; [9],0.0146 ± 0.0101 µg/mL
same,AUC(0-t),[1]; [9],0.0183 ± 0.01 µg·h/mL
same,half-life,"[1]; male, po, 2.4 mg/kg, male rats, single oral X842 2.4 mg/kg, analyte as labelled, read-out: t1/2 (converted)",2.6 h
same,Cmax,[1]; [10],0.0497 ± 0.0354 µg/mL
same,AUC(0-t),[1]; [10],0.0116 ± 0.0775 µg·h/mL
same,half-life,"[1]; male, po, 2.4 mg/kg, male rats, single oral X842, 2.4 mg/kg (third dose group), read-out: t1/2 (converted)",2.01 ± 0.18 h
same,half-life,"[1]; male, po, male rats, single-dose oral administration, read-out: t1/2 (range over doses)",2 to 2.7 h
same,Plasma concentration after IV administration,"[1]; within 0.5 h after IV administration, male and female rats",barely detectable
same,Cmax at 1 day,[2]; [11],0.138 ± 0.0076 µg/mL
same,half-life at 1 day,[2]; [11],1.1 ± 0.2 h
same,Cmax at 7 day,[2]; [12],0.0472 ± 0.0106 µg/mL
same,half-life at 7 day,[2]; [12],2 ± 1.2 h
same,half-life at 1 day,"[2]; 1.2 mg/kg, male dogs, 7 days of repeat oral X842, Day 1, analyte as labelled",2.01 ± 0.73 h
same,half-life at 7 day,"[2]; 1.2 mg/kg, male dogs, 7 days of repeat oral X842, Day 7, analyte as labelled",8.6 ± 10.8 h
same,Cmax at 1 day,"[2]; 1.2 mg/kg, male dogs, repeat oral X842, Day 1, analyte as labelled",0.0263 ± 0.0216 µg/mL
same,Cmax at 7 day,"[2]; 1.2 mg/kg, male dogs, repeat oral X842, Day 7, analyte as labelled",0.0156 ± 0.0104 µg/mL
same,Cmax,"[2]; female dogs, intravenous X842 0.3 mg/kg, analyte as labelled",0.694 ± 0.225 µg/mL
same,half-life,"[2]; female dogs, intravenous X842 0.3 mg/kg, analyte as labelled, read-out: t1/2 (converted)",0.7 ± 0.1 h
same,Cmax,"[2]; female dogs, single oral X842 0.3 mg/kg, analyte as labelled",0.0061 µg/mL
same,Cmax,"[2]; female dogs, single oral X842 1.2 mg/kg, analyte as labelled",0.0375 ± 0.0076 µg/mL
same,half-life,"[2]; female dogs, single oral X842 1.2 mg/kg, analyte as labelled, read-out: t1/2 (converted)",1.2 ± 0.2 h
same,Cmax,"[2]; female dogs, single oral X842 4.8 mg/kg, analyte as labelled",0.271 µg/mL
same,half-life,"[2]; female dogs, single oral X842 4.8 mg/kg, analyte as labelled, read-out: t1/2 (converted)",2.7 ± 2.2 h
same,half-life,"[2]; female dogs, single oral dose, read-out: t1/2 (range over doses)",2.1 to 3.2 h
same,Cmax,"[2]; male dogs, intravenous X842 0.3 mg/kg, analyte as labelled",0.745 ± 0.157 µg/mL
same,half-life,"[2]; male dogs, intravenous X842 0.3 mg/kg, analyte as labelled, read-out: t1/2 (converted)",0.5 ± 0.1 h
same,Cmax,"[2]; male dogs, single oral X842 0.3 mg/kg, analyte as labelled",0.0053 ± 0.004 µg/mL
same,Cmax,"[2]; male dogs, single oral X842 1.2 mg/kg, analyte as labelled",0.0263 µg/mL
same,half-life,"[2]; male dogs, single oral X842 1.2 mg/kg, analyte as labelled, read-out: t1/2 (converted)",2 ± 0.7 h
same,Cmax,"[2]; male dogs, single oral X842 4.8 mg/kg, analyte as labelled",0.355 µg/mL
same,half-life,"[2]; male dogs, single oral X842 4.8 mg/kg, analyte as labelled, read-out: t1/2 (converted)",3.4 ± 2.2 h
same,half-life,"[2]; male dogs, single oral dose, read-out: t1/2 (range over doses)",2 to 3.4 h
same,half-life,"[2]; both sexes, 0.3 mg/kg, dogs, IV administration, similar between the sexes, read-out: t1/2 (converted)",~0.6 h
same,AUC(0-t),"[2]; female, iv, 0.3 mg/kg, female dogs, intravenous X842 0.3 mg/kg, analyte as labelled, read-out: AUC(0-24h)",0.343 ± 0.125 µg·h/mL
same,AUC(0-t),"[2]; female, po, 0.3 mg/kg, female dogs, single oral X842 0.3 mg/kg, analyte as labelled, read-out: AUC(0-24h)",0.0051 ± 0.0033 µg·h/mL
same,AUC(0-t),"[2]; female, po, 1.2 mg/kg, female dogs, repeat oral X842, Day 1, analyte as labelled, read-out: AUC(0-24h) Day 1",0.0723 ± 0.0183 µg·h/mL
same,AUC(0-t),"[2]; female, po, 1.2 mg/kg, female dogs, repeat oral X842, Day 7, analyte as labelled, read-out: AUC(0-24h) Day 7",0.0694 ± 0.0541 µg·h/mL
same,AUC(0-t),"[2]; female, po, 1.2 mg/kg, female dogs, single oral X842 1.2 mg/kg, analyte as labelled, read-out: AUC(0-24h)",0.0723 µg·h/mL
same,AUC(0-t),"[2]; female, po, 4.8 mg/kg, female dogs, single oral X842 4.8 mg/kg, analyte as labelled, read-out: AUC(0-24h)",0.504 µg·h/mL
same,AUC(0-t),"[2]; male, iv, 0.3 mg/kg, male dogs, intravenous X842 0.3 mg/kg, analyte as labelled, read-out: AUC(0-24h)",0.361 ± 0.119 µg·h/mL
same,AUC(0-t),"[2]; male, po, 0.3 mg/kg, male dogs, single oral X842 0.3 mg/kg, analyte as labelled, read-out: AUC(0-24h)",0.0052 ± 0.0023 µg·h/mL
same,AUC(0-t),"[2]; male, po, 1.2 mg/kg, male dogs, repeat oral X842, Day 1, analyte as labelled, read-out: AUC(0-24h) Day 1",0.0651 ± 0.0512 µg·h/mL
same,AUC(0-t),"[2]; male, po, 1.2 mg/kg, male dogs, repeat oral X842, Day 7, analyte as labelled, read-out: AUC(0-24h) Day 7",0.0354 ± 0.0087 µg·h/mL
same,AUC(0-t),"[2]; male, po, 1.2 mg/kg, male dogs, single oral X842 1.2 mg/kg, analyte as labelled, read-out: AUC(0-24h)",0.0651 µg·h/mL
same,AUC(0-t),"[2]; male, po, 4.8 mg/kg, male dogs, single oral X842 4.8 mg/kg, analyte as labelled, read-out: AUC(0-24h)",0.889 µg·h/mL

# Source: publication PMC12446003, “Pharmacological characterization of linaprazan glurate (X842), a novel potassium-competitive acid blocker, in vitro and in vivo” (Frontiers in Pharmacology, 2025)
